In US20230158025A1 (UNIVERSITY OF UTAH RESEARCH FOUNDATION, priority 2020, published 2023):
Like-named read-outs stand apart in the source and are kept apart here.

Legend:
recombinant human GALK1 = recombinant human GALK1 (Homo sapiens, UniProt P51570); experiment: hGALK1 biochemical activity assay (Kinase-Glo Plus, ATP depletion)
In short: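 Turnover is measured as ATP depletion by Kinase-Glo Plus luminescence after a 1 h room-temperature reaction. Compounds span 11 concentrations, 57.4 μM–0.97 nM, in final 20 mM HEPES pH 8.0 with 5 mM MgCl2. The substrate solution held 35 μM ATP; the added solution held 5 nM human or mouse GALK1 and 100 μM galactose.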

recombinant mouse GALK1 = recombinant mouse GALK1 (Mus musculus, UniProt Q9R0N0); experiment: mGALK1 biochemical activity assay (Kinase-Glo Plus, ATP depletion)
In short: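 Recombinant GALK1 (5 nM) with 100 μM galactose; GALK1 turnover read as ATP depletion by Kinase-Glo Plus luminescence. Reaction ran 1 h at room temperature before detection reagent was added.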

[1] = aqueous kinetic solubility
[2] = rat microsomal stability (RLM)
[3] = Tables 2-15, 35 μM ATP, 100 μM galactose, 1 h, bracketed figure after some values (e.g. −1.2) is undefined and not reported, read-out: hGALK IC50
[4] = Tables 2-15, 35 μM ATP, 100 μM galactose, 1 h, bracketed figure after some values is undefined and not reported, read-out: mGALK IC50
[5] = recombinant mouse GALK1, Kinase-Glo Plus ATP depletion, read-out: mGALK
[6] = recombinant human GALK1, Kinase-Glo Plus ATP depletion, bracketed figure in the cell, e.g. (−1.2), is not defined in the text shown, read-out: hGALK
[7] = recombinant mouse GALK1, Kinase-Glo Plus ATP depletion, bracketed figure in the cell, e.g. (−1.2), is not defined in the text shown, read-out: mGALK
[8] = microsomal stability half-life, minutes
[9] = recombinant human GALK1, Kinase-Glo Plus ATP depletion, read-out: hGALK

recombinant human GALK1, sequence (P51570 whole entry): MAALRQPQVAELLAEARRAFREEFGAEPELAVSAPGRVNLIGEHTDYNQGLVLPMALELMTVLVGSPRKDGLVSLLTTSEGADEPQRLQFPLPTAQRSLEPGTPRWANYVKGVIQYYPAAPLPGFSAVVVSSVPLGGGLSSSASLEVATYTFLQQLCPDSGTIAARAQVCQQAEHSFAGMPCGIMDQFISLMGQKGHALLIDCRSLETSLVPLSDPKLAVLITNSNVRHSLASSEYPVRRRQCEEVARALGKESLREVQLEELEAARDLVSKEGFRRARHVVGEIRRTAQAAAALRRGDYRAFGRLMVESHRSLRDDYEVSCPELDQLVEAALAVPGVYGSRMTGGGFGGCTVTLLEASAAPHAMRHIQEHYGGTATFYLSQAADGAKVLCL
recombinant mouse GALK1, sequence (Q9R0N0 whole entry): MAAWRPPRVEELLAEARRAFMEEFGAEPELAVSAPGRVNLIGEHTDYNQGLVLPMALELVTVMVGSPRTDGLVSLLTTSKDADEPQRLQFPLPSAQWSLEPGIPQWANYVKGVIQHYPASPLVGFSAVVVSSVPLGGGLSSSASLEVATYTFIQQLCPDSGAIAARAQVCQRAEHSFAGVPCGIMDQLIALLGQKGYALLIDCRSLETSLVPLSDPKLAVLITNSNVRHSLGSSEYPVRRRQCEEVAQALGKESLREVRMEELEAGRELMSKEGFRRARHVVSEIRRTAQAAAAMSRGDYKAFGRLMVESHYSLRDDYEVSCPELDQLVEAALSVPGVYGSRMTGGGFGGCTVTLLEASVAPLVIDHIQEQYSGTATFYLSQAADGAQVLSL

| Compound | IC50 (recombinant human GALK1; [3]) [µM] | IC50 (recombinant mouse GALK1; [4]) [µM] | IC50 (recombinant mouse GALK1; [5]) [µM] | Perm. (1 × 10^−6 cm/sec) (PAMPA permeability; PAMPA) | Sol. ([1]; aqueous kinetic solubility) [µg/mL] | Metab. Stabil. (m) ([2]; microsomal stability half-life) | IC50 (recombinant human GALK1; [6]) [µM] | IC50 (recombinant mouse GALK1; [7]) [µM] | Metab. Stabil. (m) [2, 8] [m] | IC50 (recombinant human GALK1; [9]) [µM] | Perm. (1 × 10^−6 cm/sec) (PAMPA permeability) | Sol. [1] [µg/mL] | Metab. Stabil. (m) ([2]; microsomal half-life) |
| --- | --- | --- | --- | --- | --- | --- | --- | --- | --- | --- | --- | --- | --- |
| CC1=C(C(=O)NCc2ccc(C(=O)O)cc2)C(c2ccccc2Cl)N=C(Nc2nc3ccccc3o2)N1 (centres unmarked) [Compound 225, 4-((2-(benzo[d]oxazol-2-ylamino)-4-(2-chlorophenyl)-6-methyl-1,4-dihydropyrimidine-5-carboxamido)methyl)benzoic acid] | 3.43 | 10.9 | 10.9 | <1 1 × 10^−6 cm/sec | 47.0 | >30 | – | – | – | – | – | – | – |
| CC1=C(C(=O)Nc2nncs2)C2(CCCC2)N=C(Nc2nc3ccccc3o2)N1 [Compound 252, 7-(benzo[d]oxazol-2-ylamino)-9-methyl-N-(1,3,4-thiadiazol-2-yl)-6,8-diazaspiro[4.5]deca-6,9-diene-10-carboxamide] | – | – | – | <1 1 × 10^−6 cm/sec | <1 | – | 3.85 | 19.3 | >30 | – | – | – | – |
| CC1=C(C(=O)NCc2cnn(Cc3ccccc3)c2)C(c2ccc(C)cc2Cl)N=C(Nc2nc3ccc(F)cc3o2)N1 (centres unmarked) [Compound 110, N-((1-benzyl-1H-pyrazol-4-yl)methyl)-4-(2-chloro-4-methylphenyl)-2-((6-fluorobenzo[d]oxazol-2-yl)amino)-6-methyl-1,4-dihydropyrimidine-5-carboxamide] | 1.72 | 5.44 | 5.44 | – | – | – | – | – | – | 1.72 | 159.0 1 × 10^−6 cm/sec | <1 | 2.74 |
| COC(=O)c1ccccc1CNC(=O)C1=C(C)NC(Nc2nc3ccccc3o2)=NC1c1ccccc1Cl (centres unmarked) [Compound 222, methyl 2-((2-(benzo[d]oxazol-2-ylamino)-4-(2-chlorophenyl)-6-methyl-1,4-dihydropyrimidine-5-carboxamido)methyl)benzoate] | 6.85 | 4.32 | 4.32 | 462.5 1 × 10^−6 cm/sec | <1 | 1.742 | – | – | – | 6.85 | – | – | – |
| CC(C)C1=C(C(=O)Nc2nncs2)C(c2ccccc2Cl)N=C(Nc2nc3ccccc3o2)N1 (centres unmarked) [Compound 250, 2-(benzo[d]oxazol-2-ylamino)-4-(2-chlorophenyl)-6-isopropyl-N-(1,3,4-thiadiazol-2-yl)-1,4-dihydropyrimidine-5-carboxamide] | – | – | – | 24.6 1 × 10^−6 cm/sec | <1 | – | 7.69 | 15.3 | >30 | – | – | – | – |
| O=C(Nc1nncs1)C1=C(c2cnccn2)NC(Nc2nc3ccccc3o2)=NC1c1ccccc1Cl (centres unmarked) [Compound 249, 2-(benzo[d]oxazol-2-ylamino)-4-(2-chlorophenyl)-6-(pyrazin-2-yl)-N-(1,3,4-thiadiazol-2-yl)-1,4-dihydropyrimidine-5-carboxamide] | – | – | – | 60.3 1 × 10^−6 cm/sec | 2.1 | – | 3.85 | 21.7 | >30 | – | – | – | – |
| CCn1ncc(CNC(=O)C2=C(C)NC(Nc3nc4ccc(F)c(N)c4o3)=NC2c2ccc(C)cc2Cl)c1F (centres unmarked) [Compound 133, 2-((7-amino-6-fluorobenzo[d]oxazol-2-yl)amino)-4-(2-chloro-4-methylphenyl)-N-((1-ethyl-5-fluoro-1H-pyrazol-4-yl)methyl)-6-methyl-1,4-dihydropyrimidine-5-carboxamide] | 0.11 | 1.09 | 1.09 | 427.4 1 × 10^−6 cm/sec | <1 | 7.036 | – | – | – | 0.11 | – | – | – |
| CC1=C(C(=O)Nc2nncs2)C(c2ncccc2Br)N=C(Nc2nc3ccccc3o2)N1 (centres unmarked) [Compound 257, 2-(benzo[d]oxazol-2-ylamino)-4-(3-bromopyridin-2-yl)-6-methyl-N-(1,3,4-thiadiazol-2-yl)-1,4-dihydropyrimidine-5-carboxamide] | – | – | – | 709.3 1 × 10^−6 cm/sec | 3.0 | – | 4.85 | 6.85 | >30 | – | – | – | – |
